Active and inactive are the calls of the source.
Experiments:
[1] = A cytotoxicity screen of small molecule inhibitors of the PhoP region in Salmonella typhi identified in the primary screen. [Related pubchem assays: 1850, 1864, 1985 ]; assay type: functional
[2] = target: T1, Protein skinhead-1 (Caenorhabditis elegans, UniProt P34707); assay type: functional
T1 sequence (P34707 whole entry): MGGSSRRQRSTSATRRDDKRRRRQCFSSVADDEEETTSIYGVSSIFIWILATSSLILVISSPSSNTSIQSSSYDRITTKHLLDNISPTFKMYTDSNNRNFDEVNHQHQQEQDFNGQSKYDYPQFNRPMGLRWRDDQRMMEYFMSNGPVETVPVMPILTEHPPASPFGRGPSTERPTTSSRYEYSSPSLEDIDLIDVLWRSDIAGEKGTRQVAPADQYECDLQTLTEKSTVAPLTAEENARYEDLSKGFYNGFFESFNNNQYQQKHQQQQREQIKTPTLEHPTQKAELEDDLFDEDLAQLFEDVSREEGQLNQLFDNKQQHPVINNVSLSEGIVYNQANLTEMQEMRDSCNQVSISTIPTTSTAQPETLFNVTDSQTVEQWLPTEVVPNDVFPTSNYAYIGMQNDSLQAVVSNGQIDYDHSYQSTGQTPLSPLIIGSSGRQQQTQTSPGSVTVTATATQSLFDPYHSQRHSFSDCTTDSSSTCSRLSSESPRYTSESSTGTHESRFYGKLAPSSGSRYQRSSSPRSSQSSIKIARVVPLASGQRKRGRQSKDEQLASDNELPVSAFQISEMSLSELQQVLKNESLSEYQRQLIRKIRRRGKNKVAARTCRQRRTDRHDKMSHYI

[3] = target: Disintegrin and metalloproteinase domain-containing protein 17 (Homo sapiens, UniProt P78536); assay: exosite inhibitors of ADAM17, dose response, biochemical (AID 743260)
[4] = target: Cytochrome P450 3A4 (Homo sapiens, UniProt P08684); conditions: Potency;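 note: confirmatory qHTS run detecting inhibitors and substrates of CYP3A4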
[5] = target: Prothrombin (Homo sapiens, UniProt P00734); assay: Thrombin 1536 HTS Dose Response Confirmation. [Related pubchem assays: 1046 (Thrombin 1536 HTS; hits were confirmed in this assay)]; assay type: functional
[6] = target: Large T antigen (Simian virus 40, UniProt P03070); assay type: functional, Betapolyomavirus macacae;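 note: Confirmatory-stage PubChem screen for compounds that inhibit SV40 T antigen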
[7] = target: DNA dC->dU-editing enzyme APOBEC-3A (Homo sapiens, UniProt P31941); assay: A3A deaminase inhibition for selectivity – biochemical, dose response (AID 504722); assay type: functional
[8] = target: DNA dC->dU-editing enzyme APOBEC-3G (Homo sapiens, UniProt Q9HC16); assay: Dose Response confirmation of small molecule APOBEC3G DNA Deaminase Inhibitors via a fluorescence-based single-stranded DNA deaminase assay. [Related pubchem assays (depositor defined):AID493012, AID493028]; assay type: functional
[9] = target: T2, Mannose-6-phosphate isomerase (Homo sapiens, UniProt P34949); assay: phosphomannose isomerase inhibition – biochemical, fluorescence intensity, confirmation (AID 1535)
T2 sequence (P34949 whole entry): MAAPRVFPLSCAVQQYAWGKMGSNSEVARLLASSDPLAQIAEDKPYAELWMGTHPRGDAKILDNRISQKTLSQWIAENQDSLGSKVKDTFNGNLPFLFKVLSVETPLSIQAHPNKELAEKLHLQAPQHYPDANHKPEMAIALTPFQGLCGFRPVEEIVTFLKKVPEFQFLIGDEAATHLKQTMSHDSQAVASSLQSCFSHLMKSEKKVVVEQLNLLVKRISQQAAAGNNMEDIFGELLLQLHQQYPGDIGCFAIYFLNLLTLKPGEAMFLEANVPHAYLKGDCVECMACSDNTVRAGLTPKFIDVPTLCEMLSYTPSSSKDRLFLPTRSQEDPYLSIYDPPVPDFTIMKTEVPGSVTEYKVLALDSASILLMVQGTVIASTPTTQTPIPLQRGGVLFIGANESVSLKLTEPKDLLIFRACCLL

[10] = target: T3, Phosphomannomutase 2 (Homo sapiens, UniProt O15305); assay: Counter screen SAR assay for PMM2 inhibitors via a fluorescence intensity assay. [Related pubchem assays (depositor defined):AID1545, AID1574]
T3 sequence (O15305 whole entry): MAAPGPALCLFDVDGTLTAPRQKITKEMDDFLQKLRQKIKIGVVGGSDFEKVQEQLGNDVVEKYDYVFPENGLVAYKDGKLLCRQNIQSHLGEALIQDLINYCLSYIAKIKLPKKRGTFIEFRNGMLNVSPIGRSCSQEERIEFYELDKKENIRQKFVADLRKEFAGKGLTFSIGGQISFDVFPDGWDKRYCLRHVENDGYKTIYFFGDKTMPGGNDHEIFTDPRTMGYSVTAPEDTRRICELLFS

[11] = inhibition of ADAM10 peptide cleavage – biochemical, FRET peptide substrate, recombinant human ADAM10, selectivity assay for ADAM17 exosite inhibitor project, dose response (AID 743259);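 note: ADAM10 enzyme cleaving a FRET peptide substrate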
[12] = viability of uninfected HEp-2 cells – cell-based, HTS, cytotoxicity control for RSV inhibitor project, dose response (AID 2410); assay type: functional; conditions: human respiratory syncytial virus
[13] = M. tuberculosis H37Rv growth inhibitors, H37Rv strain (AID 1626); assay type: functional
[14] = target: T4, Coagulation factor XII (Homo sapiens, UniProt P00748); assay type: functional;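 note: activated factor XIIa alpha cleaving a fluorogenic AMC peptide substrate; inhibitor potency from loss of enzyme activity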
T4 sequence (P00748 whole entry): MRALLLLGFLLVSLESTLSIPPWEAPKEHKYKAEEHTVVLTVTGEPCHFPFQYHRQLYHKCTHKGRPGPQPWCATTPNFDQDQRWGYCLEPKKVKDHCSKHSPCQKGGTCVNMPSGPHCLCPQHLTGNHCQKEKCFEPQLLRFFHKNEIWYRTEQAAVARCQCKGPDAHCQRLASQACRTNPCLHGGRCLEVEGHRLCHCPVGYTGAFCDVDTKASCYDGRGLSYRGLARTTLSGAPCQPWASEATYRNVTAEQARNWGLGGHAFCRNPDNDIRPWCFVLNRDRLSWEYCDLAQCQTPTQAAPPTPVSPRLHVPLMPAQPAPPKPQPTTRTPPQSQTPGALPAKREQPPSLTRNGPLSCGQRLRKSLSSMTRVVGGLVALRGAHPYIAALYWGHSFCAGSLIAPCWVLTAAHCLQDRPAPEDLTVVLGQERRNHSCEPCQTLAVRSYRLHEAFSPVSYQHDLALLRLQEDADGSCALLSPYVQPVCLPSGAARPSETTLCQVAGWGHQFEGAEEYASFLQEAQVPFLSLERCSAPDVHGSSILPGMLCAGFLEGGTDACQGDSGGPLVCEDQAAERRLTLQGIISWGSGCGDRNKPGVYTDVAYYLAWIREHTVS

[15] = target: T5, Rac GTPase-activating protein 1 (Homo sapiens, UniProt Q9H0H5); assay: blockers of MgcRacGAP-driven Rac1 GTP hydrolysis – biochemical, ADP Hunter fluorescence, primary and confirmatory, confirmation (AID 624330); assay type: functional
T5 sequence (Q9H0H5 whole entry): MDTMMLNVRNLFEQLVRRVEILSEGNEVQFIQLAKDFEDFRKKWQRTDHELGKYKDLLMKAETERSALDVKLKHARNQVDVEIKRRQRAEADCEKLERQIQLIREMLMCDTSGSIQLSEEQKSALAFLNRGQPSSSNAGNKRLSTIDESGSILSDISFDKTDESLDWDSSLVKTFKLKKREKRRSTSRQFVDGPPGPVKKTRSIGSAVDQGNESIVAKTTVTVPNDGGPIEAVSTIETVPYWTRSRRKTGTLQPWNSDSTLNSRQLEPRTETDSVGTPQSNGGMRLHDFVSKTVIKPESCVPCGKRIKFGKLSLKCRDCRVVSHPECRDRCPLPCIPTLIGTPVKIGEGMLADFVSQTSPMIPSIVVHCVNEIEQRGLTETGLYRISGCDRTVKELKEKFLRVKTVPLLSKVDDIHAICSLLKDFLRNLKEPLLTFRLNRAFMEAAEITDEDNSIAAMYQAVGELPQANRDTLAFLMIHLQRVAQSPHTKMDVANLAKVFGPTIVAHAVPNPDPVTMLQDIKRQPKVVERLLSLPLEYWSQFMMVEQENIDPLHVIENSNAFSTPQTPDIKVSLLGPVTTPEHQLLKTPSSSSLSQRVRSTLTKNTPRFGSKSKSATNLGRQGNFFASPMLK

Chain of Cytochrome P450 3A4 (P08684 whole entry): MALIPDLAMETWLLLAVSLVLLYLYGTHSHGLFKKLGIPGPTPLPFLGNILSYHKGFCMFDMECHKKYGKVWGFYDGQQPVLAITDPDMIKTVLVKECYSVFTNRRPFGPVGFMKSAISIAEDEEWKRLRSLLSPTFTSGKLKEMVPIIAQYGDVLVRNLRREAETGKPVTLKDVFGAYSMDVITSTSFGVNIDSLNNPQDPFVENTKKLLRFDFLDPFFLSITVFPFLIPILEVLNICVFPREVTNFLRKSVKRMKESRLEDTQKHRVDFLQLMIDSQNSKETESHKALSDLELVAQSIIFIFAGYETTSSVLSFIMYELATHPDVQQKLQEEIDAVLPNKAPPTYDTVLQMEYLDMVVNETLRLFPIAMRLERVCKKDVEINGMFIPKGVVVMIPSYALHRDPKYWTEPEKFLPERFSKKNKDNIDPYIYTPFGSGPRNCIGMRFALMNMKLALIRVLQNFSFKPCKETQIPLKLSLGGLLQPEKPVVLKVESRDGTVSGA
Chain of Disintegrin and metalloproteinase domain-containing protein 17 (P78536 whole entry, the tested form may be a part): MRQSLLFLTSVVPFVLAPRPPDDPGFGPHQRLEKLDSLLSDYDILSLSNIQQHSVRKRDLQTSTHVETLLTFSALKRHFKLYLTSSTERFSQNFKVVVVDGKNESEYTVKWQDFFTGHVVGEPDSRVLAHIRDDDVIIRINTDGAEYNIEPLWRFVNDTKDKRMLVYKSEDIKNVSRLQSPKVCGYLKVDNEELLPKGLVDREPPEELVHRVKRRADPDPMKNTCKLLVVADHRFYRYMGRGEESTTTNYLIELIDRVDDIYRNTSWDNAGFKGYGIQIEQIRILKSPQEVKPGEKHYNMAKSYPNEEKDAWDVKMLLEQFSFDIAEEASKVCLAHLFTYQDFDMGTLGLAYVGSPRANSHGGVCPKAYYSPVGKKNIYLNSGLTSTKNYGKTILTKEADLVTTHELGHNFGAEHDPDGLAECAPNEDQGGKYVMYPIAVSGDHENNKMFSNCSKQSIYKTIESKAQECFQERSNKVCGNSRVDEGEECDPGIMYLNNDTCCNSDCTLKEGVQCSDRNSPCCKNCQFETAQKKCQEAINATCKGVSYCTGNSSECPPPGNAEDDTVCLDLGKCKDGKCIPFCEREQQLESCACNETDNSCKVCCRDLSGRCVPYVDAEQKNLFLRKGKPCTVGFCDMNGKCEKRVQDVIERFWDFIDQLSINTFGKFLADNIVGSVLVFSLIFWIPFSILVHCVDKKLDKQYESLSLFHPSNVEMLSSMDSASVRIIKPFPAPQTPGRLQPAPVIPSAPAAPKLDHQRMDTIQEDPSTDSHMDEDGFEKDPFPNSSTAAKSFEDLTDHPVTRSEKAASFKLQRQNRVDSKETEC
Chain of DNA dC->dU-editing enzyme APOBEC-3G (Q9HC16 whole entry): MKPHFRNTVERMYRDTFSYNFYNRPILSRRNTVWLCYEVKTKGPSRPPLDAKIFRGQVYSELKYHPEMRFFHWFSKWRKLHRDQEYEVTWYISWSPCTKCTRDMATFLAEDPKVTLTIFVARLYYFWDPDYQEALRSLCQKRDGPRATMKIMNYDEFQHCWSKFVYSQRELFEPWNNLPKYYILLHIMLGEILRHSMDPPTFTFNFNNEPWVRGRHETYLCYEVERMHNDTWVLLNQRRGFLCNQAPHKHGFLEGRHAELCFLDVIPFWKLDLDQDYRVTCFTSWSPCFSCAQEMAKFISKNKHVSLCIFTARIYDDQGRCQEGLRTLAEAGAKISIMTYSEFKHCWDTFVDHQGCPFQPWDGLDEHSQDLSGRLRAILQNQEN
Chain of DNA dC->dU-editing enzyme APOBEC-3A (P31941 whole entry): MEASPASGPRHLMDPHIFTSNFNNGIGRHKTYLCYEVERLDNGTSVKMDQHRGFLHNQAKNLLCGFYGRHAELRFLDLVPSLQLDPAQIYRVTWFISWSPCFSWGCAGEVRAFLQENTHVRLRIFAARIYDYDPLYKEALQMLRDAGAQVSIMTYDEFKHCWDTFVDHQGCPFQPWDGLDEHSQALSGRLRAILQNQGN
Chain of Large T antigen (P03070 whole entry): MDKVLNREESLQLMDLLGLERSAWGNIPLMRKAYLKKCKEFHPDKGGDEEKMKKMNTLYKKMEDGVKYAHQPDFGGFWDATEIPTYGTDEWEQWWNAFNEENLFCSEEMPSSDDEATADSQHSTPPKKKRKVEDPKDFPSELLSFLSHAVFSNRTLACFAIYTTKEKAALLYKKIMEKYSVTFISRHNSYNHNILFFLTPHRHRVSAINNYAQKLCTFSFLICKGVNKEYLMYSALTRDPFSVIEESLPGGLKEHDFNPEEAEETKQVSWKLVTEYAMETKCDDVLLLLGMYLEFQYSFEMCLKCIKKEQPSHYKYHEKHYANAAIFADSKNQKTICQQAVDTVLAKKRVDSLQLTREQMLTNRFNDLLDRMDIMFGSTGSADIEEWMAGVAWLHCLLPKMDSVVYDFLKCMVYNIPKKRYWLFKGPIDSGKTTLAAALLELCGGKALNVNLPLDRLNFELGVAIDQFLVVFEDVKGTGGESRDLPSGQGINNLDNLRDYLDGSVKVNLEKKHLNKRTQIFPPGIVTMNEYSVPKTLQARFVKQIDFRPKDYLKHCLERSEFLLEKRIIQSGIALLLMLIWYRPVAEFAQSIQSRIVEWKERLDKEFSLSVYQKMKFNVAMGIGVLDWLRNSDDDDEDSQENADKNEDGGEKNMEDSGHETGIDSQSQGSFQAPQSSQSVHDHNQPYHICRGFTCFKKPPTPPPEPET

For `COc1ccccc1C1CN(c2ccc(F)cc2F)N=C1c1cccs1` (centres undefined), the EC50 [1] was > 50 µM (active) and the IC50 [2] was > 100 µM (inactive).
For `COc1cc(OC)cc(-c2cn[nH]c2N)c1`, the IC50 [3] was > 69.5 µM (inactive).
With `Cc1cc(=O)cc2oc3cc(N)c(-c4c(C)cc(O)cc4O)c(C)c3nc1-2` the AC50 [4] was 39.8 µM (inconclusive).
For `COC(=O)[C@@H]1C[C@@H]2CC[C@@H](O)C[C@@H]2N1Cc1ccc(C(F)(F)F)cc1`, the AC50 [4] was 10 µM (inconclusive).
With `Cc1cc[n+](CC(=O)c2ccc(NC(=O)c3ccccc3)cc2)cc1` the EC50 [1] was > 50 µM (active).
For `CCCCc1nc2ccccc2c(NC(=O)CNC(C)(C)C)c1CCC`, the IC50 [5] was > 50 µM (not active).
In the case of `COc1ccc(-c2coc3c(O)c(OC)ccc3c2=O)cc1` [RETUSIN 7-METHYL ETHER], the AC50 [4] is reported as 31.6 µM (inconclusive).
In the case of `CC(/C=N/n1c(S)nnc1-c1ccncc1)=C\c1ccco1`, the IC50 [6] is reported as 45 µM (active), the IC50 [7] is reported as > 100 µM (inactive) and the IC50 [8] is reported as 2.71 µM (active).
In the case of `Clc1nss/c1=N\c1cnc2ccccc2c1`, the IC50 [9] is reported as 67.2 µM (active) and the IC50 [10] is reported as > 100 µM (inactive).
With `Cc1cc(Oc2ccccc2)nc(SCC(=O)Nc2ccc(Cl)c(Cl)c2)n1` the IC50 [3] was > 69.5 µM (inactive) and the IC50 [11] was 10.4 µM (inactive).
For `CC(C)OC(=O)c1ccc(NC(=O)c2cncc(Br)c2)cc1`, the CC50 [12] was > 50 µM (active) and the IC50 [13] was > 100 µM (active).
With `Cc1c(Cl)cccc1/N=c1\ssnc1Cl` the IC50 [9] was > 100 µM (inactive) and the IC50 [10] was > 100 µM (inactive).
For `Sc1nnc(-c2ccncc2)n1/N=C/C=C/c1ccco1`, the IC50 [7] was 26.7 µM (active), the IC50 [8] was 2.54 µM (active) and the IC50 [14] was 45.3 µM (active). For the same compound, the IC50 [15] was 81.9 µM (active).
For `CC(/C=C(\O)c1ccc(C)o1)=N\c1ccc2c(c1)OCO2`, the IC50 [13] was > 100 µM (active).

Reference: ChEMBL document CHEMBL1201862, “PubChem BioAssay data set” (2004)
